Molecules are shown by their SMILES.

Our source for the pKa values is US9687550B2, “Compositions for nucleic acid delivery” (Arbutus Biopharma Corporation, priority 2009, dated 2017).

A short description of this data set: pKa of lipid. Type of data set: physicochemical.

Consider `CCCCCCCCCCCCCCCCCCC(CCCCCCCCCCCCCCCCCC)OC(=O)CCCN(C)C` [compound 111], for which the pKa is more than 7.4.
